Values of other authors in patent US20220160758A1, “ANTIVIRAL, ANTIBACTERIAL AND/OR ANTI FUNGAL COMPOSITIONS, APPLICATIONS AND THERAPY” (AVITAS BIO CORP., priority 2020, published 2022).

What was measured:
[1] = tested on: bacteriophage PR4; details: in vitro
[2] = tested on: gram-positive and gram-negative microorganisms; details: at the concentrations tested
[3] = tested on: bacteriophage

SMILES: CCCCCC/C=C\CCCCCCCC(=O)O [palmitoleic acid]
- inhibition of viral replication [1]: most effective

SMILES: CCCCC/C=C\C/C=C\C/C=C\C/C=C\CCCC(=O)O [arachidonic acid]
- inhibition of viral replication [1]: moderately effective
- growth inhibition [2]: not inhibitory

SMILES: CCCCCCCC/C=C\CCCCCCCC(=O)O [oleic acid]
- inactivating the virus [3]: most effective
- inhibition of viral replication [1]: most effective
